Measurements from patent US9328138B2 (priority 2011, dated 2016).
Structures can show the parent of a compound that is named as a salt.

Key:
[1] = target: T1, HCV genotype 1b (BK) NS3 modified enzyme with a R155K mutation (Hepatitis C virus genotype 1b, UniProt P26663, R1181K); test: HCV NS3 protease time-resolved fluorescence (TRF) assay, genotype 1b R155K; format: biochemical; details: Ki 1b R155K
T1 construct: HCV genotype 1b (BK) NS3 modified enzyme
Outline: (§1)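 Pre-incubation of NS3/NS4A protease with inhibitor for 10 min in pH 7.5 HEPES buffer with 10 mM DTT; 25 nM TRF peptide substrate, hydrolysis 6 h at room temperature. Fluorescence read at ex 340/em 615 nm with 400 μs delay, enzyme level set for S/B 5-20; IC50 by four-parameter fit.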

[2] = target: HCV NS3 protease genotype 3a (3A-1) (Hepatitis C virus genotype 3a, UniProt Q81258); test: HCV NS3 protease time-resolved fluorescence (TRF) assay, genotype 3a; format: biochemical; details: Ki 3a
Outline: as §1

[3] = genotype 1b (BK) NS3 R155K, single value
[4] = first of two values printed in the cell (not explained)
[5] = second of two values printed in the cell (not explained)

Row | SMILES | Ki [1, 3] [pM] | Ki [2] [pM] | Ki [1, 4] [pM] | Ki [1, 5] [pM]
1 | C=C[C@@H]1C[C@]1(NC(=O)[C@@H]1C[C@@H]2CN1C(=O)[C@H](C(C)(C)C)NC(=O)O[C@@H]1CCC[C@H]1CCCCCc1c(nc3ccccc3c1OCCN1CCOCC1)O2)C(=O)NS(=O)(=O)C1(C(C)(C)O)CC1 [Example 108, (3aR,7S,10S,12R,24aR)-7-tert-butyl-N-[(1R,2S)-2-ethenyl-1-({[1-(2-hydroxypropan-2-yl)cyclopropyl]sulfonyl}carbamoyl)cyclopropyl]-19-[2-(morpholin-4-yl)ethoxy]-5,8-dioxo-1,2,3,3a,5,6,7,8,11, 12,20,21,22,23,24,24a-hexadeca hydro-10H-9,12-methanocyclopenta [18,19][1,10,3,6]dioxadiaza-cyclononadecino [11,12-b]quinoline-10-carboxamide] | 930 | 23000 | – | –
2 | C=C[C@@H]1C[C@]1(NC(=O)[C@@H]1C[C@@H]2CN1C(=O)[C@H](C1CCCC1)NC(=O)O[C@@H]1CCC[C@H]1CCC/C=C/Cc1c(nc3ccccc3c1O)O2)C(=O)NS(=O)(=O)C1CC1 [Example 18] | 790 | 12000 | – | –
3 | C=C[C@@H]1C[C@]1(NC(=O)[C@@H]1C[C@@H]2CN1C(=O)[C@H](C(C)(C)C)NC(=O)O[C@@H]1CCC[C@H]1CCCCCc1c(nc3ccccc3c1OCCN1CCOCC1)O2)C(=O)NS(=O)(=O)N(C)C [Example 106, (3aR,7S,10S,12R,24aR)-7-tert-butyl-N-{(1R,2S)-1-[(dimethylsulfamoyl)carbamoyl]-2-ethenylcyclopropyl}-19-[2-(morpholin-4-yl)ethoxy]-5,8-dioxo-1,2,3,3a,5,6,7,8,11,12,20,21,22,23,24,24a-hexadecahydro-10H-9,12-methanocyclopenta[18,19][1,10,3,6]dioxadiazacyclononadecino[11,12-b]quinoline-10-carboxamide] | 780 | 17000 | – | –
4 | C=C[C@@H]1C[C@]1(NC(=O)[C@@H]1C[C@@H]2CN1C(=O)[C@H](C1CCCCC1)NC(=O)O[C@@H]1C[C@H]1CCCCCc1c(nc3ccccc3c1OC1CCN(CC3CC3)CC1)O2)C(=O)NS(=O)(=O)C1(C)CC1 [Example 238, 4-{[(1aR,5S,8S,10R,22aR)-5-cyclohexyl-8-{[(1R,2S)-2-ethenyl-1-{[(1-methylcyclopropyl)sulfonyl]carbamoyl}cyclopropyl]carbamoyl}-3,6-dioxo-1,1a,3,4,5,6,9,10,18,19,20,21,22,22a-tetradecahydro-8H-7,10-methanocyclopropa[18,19][1,10,3,6]dioxadiazacyclononadecino[11,12-b]quinolin-17-yl]oxy}-1-(cyclopropylmethyl)piperidinium formate] | – | 900 | 31 | 47
5 | C=C[C@@H]1C[C@]1(NC(=O)[C@@H]1C[C@@H]2CN1C(=O)[C@H](C1CCCC1)NC(=O)N1CC[C@@H](C1)OCCCCCCc1c(nc3ccccc3c1OCC)O2)C(=O)NS(=O)(=O)C1CC1 [Example 33, (2R,4S,7S,13S)-7-cyclopentyl-N-{(1R,2S)-1-[(cyclopropylsulfonyl)carbamoyl]-2-ethenylcyclopropyl}-21-ethoxy-6,9-dioxo-3,4,6,7,8,9,12, 13,15,16,17,18,19,20-tetradecahydro-2H,11H-2,5:10,13-dimethano[1,14,5,7,10]dioxatriazacyclo docosino[15,16-b]quinoline-4-carboxamide] | 320 | 22000 | – | –
6 | C=C[C@@H]1C[C@]1(NC(=O)[C@@H]1C[C@@H]2CN1C(=O)[C@H](C(C)(C)C)NC(=O)O[C@@H]1CCC[C@H]1CCCCCc1c(nc3ccccc3c1O)O2)C(=O)NS(=O)(=O)C1(COC)CC1 [Example 35, (3aR,7S,10S,12R,24aR)-7-tert-butyl-N-[(1R,2S)-2-ethenyl-1-({[1-(methoxymethyl)cyclopropyl]sulfonyl}carbamoyl)cyclopropyl]-19-hydroxy-5,8-dioxo-1,2,3,3a,5,6,7,8,11,12, 20,21,22,23,24,24a-hexadecahydro-10H-9,12-methanocyclopenta[18,19][1,10,3,6] dioxadiazacyclononadecino[11,12-b]quinoline-10-carboxamide] | 150 | 2000 | – | –
7 | C=C[C@@H]1C[C@]1(NC(=O)[C@@H]1C[C@@H]2CN1C(=O)[C@H](C(C)(C)C)NC(=O)O[C@@H]1C[C@H]1CCCCCc1c(nc3ccccc3c1-c1ccncc1)O2)C(=O)NS(=O)(=O)C1(C)CC1 [Example 244, (1aR,5S,8S,10R,22aR)-5-tert-butyl-N-[(1R,2S)-2-ethenyl-1-{[(1-methylcyclopropyl)sulfonyl]carbamoyl}cyclopropyl]-3,6-dioxo-17-(pyridin-4-yl)-1,1a,3,4,5,6,9,10,18,19,20,21,22,22a-tetradecahydro-8H-7,10-methanocyclopropa[18,19][1,10,3,6]dioxadiazacyclononadecino[11,12-b]quinoline-8-carboxamide] | – | 296000 | 1590 | 1650
8 | C=C[C@@H]1C[C@]1(NC(=O)[C@@H]1C[C@@H]2CN1C(=O)[C@H](C(C)(C)C)NC(=O)O[C@@H]1C[C@H]1CCCCCc1c(nc3ccccc3c1OCCNC(C)(C)C)O2)C(=O)NS(=O)(=O)C1(C)CC1 [Example 177, (1aR,5S,8S,10R,22aR)-5-tert-butyl-17-[2-(tert-butylamino)ethoxy]-N-[(1R,2S)-2-ethenyl-1-{[(1-methylcyclopropyl)sulfonyl]carbamoyl}cyclopropyl]-3,6-dioxo-1,1a,3,4,5,6,9,10, 18,19,20,21,22,22a-tetradeca hydro-8H-7,10-methanocyclopropa[18,19][1,10,3,6] dioxadiazacyclononadecino[11,12-b] quinoline-8-carboxamide] | 140 | 1100 | – | –
9 | C=C[C@@H]1C[C@]1(NC(=O)[C@@H]1C[C@@H]2CN1C(=O)[C@H](C(C)(C)C)NC(=O)O[C@@H]1C[C@H]1CCCCCc1c(nc3c(F)cccc3c1OCCn1ccnc1)O2)C(=O)NS(=O)(=O)C1(C)CC1 [Example 214, (1aR,5S,8S,10R,22aR)-5-tert-butyl-N-[(1R,2S)-2-ethenyl-1-{[(1-methylcyclopropyl)sulfonyl]carbamoyl}cyclopropyl]-13-fluoro-17-[2-(1H-imidazol-1-yl)ethoxy]-3,6-dioxo-1,1a,3,4,5,6,9,10,18,19,20,21,22,22a-tetradecahydro-8H-7,10-methanocyclopropa[18,19][1,10,3,6] dioxadiazacyclononadecino[11,12-b]quinoline-8-carboxamide] | 21 | 1200 | – | –
10 | C=C[C@@H]1C[C@]1(NC(=O)[C@@H]1C[C@@H]2CN1C(=O)[C@H](C(C)(C)C)NC(=O)O[C@@H]1C[C@H]1CCCCCc1c(nc3ccccc3c1OC1CC3CCC(C1)N3CC)O2)C(=O)NS(=O)(=O)C1(C)CC1 (single isomer, unassigned) [Example 277] | – | 78 | 8 | 13
11 | C=CC1C[C@]1(NC(=O)[C@@H]1C[C@@H]2CN1C(=O)[C@H](C1CCCC1)NC(=O)O[C@@H]1CCC[C@H]1CC/C=C/Cc1c(nc3ccccc3c1OCCCN1CCN(C)CC1)O2)C(=O)NS(=O)(=O)C1CC1 (stereo partly drawn) [Example 88, (3aR,7S,10S,12R,21E,24aS)-7-cyclo pentyl-N-{(1R,2S)-1-[(cyclo-propylsulfonyl)carbamoyl]-2-ethenylcyclopropyl}-19-[3-(4-methylpiperazin-1-yl)propoxy]-5,8-dioxo-1,2,3,3a,5,6,7,8,11,12,20,23,24,24a-tetradecahydro-10H-9,12-methano-cyclopenta[18,19][1,10,3,6]dioxa diazacyclononadecino[11,2-b]quinoline-10-carboxamide] | 340 | 4400 | – | –
12 | CC1(S(=O)(=O)NC(=O)[C@@]23C[C@H]2/C=C\CCCCC[C@@H]2NC(=O)O[C@@H]4C[C@H]4CCC/C=C/c4c(nc5ccccc5c4OCCN4CCCC4)O[C@@H]4C[C@@H](C(=O)N3)N(C4)C2=O)CC1 [Example 299, (1aR,5S,11Z,12aS,13aR,16S,19R,27E, 31aR)-N-[(1-methylcyclopropyl)sulfonyl]-3,15,33-trioxo-26-[2-(pyrrolidin-1-yl)ethoxy]-1,1a,3,4,5,6,7,8,9,10,12a,13,15,16,18,19,29, 30,31,31a-icosahydro-5,17:16,19-dimethanodicyclopropa[12,13:28,29][1,20,3, 14,17]dioxatriazacyclononacosino[21,22-b]quinoline-13a(14H)-carboxamide] | 190 | 3800 | – | –
13 | C=C[C@@H]1C[C@]1(NC(=O)[C@@H]1C[C@@H]2CN1C(=O)[C@H](C1CCCCC1)NC(=O)O[C@@H]1C[C@H]1CCCCCc1c(nc3ccccc3c1OC1CCN(CCOC)CC1)O2)C(=O)NS(=O)(=O)C1(C)CC1 [Example 237, 4-{[(1aR,5S,8S,10R,22aR)-5-cyclohexyl-8-{[(1R,2S)-2-ethenyl-1-{[(1-methylcyclopropyl)sulfonyl]carbamoyl}cyclopropyl]carbamoyl}-3,6-dioxo-1,1a,3,4,5,6,9,10,18,19,20,21,22,22a-tetradecahydro-8H-7,10-methanocyclopropa[18,19][1,10,3,6]dioxadiazacyclononadecino[11,12-b]quinolin-17-yl]oxy}-1-(2-methoxyethyl)piperidinium formate] | – | 800 | 13 | 98
14 | C=C[C@@H]1C[C@]1(NC(=O)[C@@H]1C[C@@H]2CN1C(=O)[C@H](C(C)(C)C)NC(=O)O[C@@H]1C[C@H]1CCCCCc1c(nc3cc(C(F)(F)F)ccc3c1OCCN1CCOCC1)O2)C(=O)NS(=O)(=O)C1(C)CC1 [Example 129, (1aR,5S,8S,10R,22aR)-5-tert-butyl-N-[(1R,2S)-2-ethenyl-1-{[(1-methylcyclopropyl)sulfonyl]carbamoyl}cyclopropyl]-17-[2-(morpholin-4-yl)ethoxy]-3,6-dioxo-14-(trifluoromethyl)-1,1a,3,4,5,6,9,10,18,19,20,21,22,22a-tetradecahydro-8H-7,10-methanocyclopropa[18,19][1,10,3,6] dioxadiazacyclononadecino[11,12-b] quinoline-8-carboxamide] | 510 | 8700 | – | –
